# Data reported in patent US20110207705A1, “OVIEDOMYCIN DERIVATIVES, METHOD FOR OBTAINING SAME AND USE THEREOF” (UNIVERSIDAD DE OVIEDO, priority 2008, published 2011).
# Read-outs that look alike come from different tables or passages of the source.
# Assays:
# A549 (lung) = assay: Anti-tumour activity, sulforhodamine B (SRB) colorimetric cell growth test; type: cell-based; conditions: 48 h exposure, read-out: GI50 (concentration at which the compound tested inhibits 50% of the cell growth in comparison with untreated cells)
# Experimental: (§1) The OVM derivatives were tested against a series of cell lines from tumours. Cell growth and viability were quantitatively determined with a colorimetric type test, using the reaction with sulforhodamine B (SRB), according to the technique described by Faircloth et al. (Journal of Tissue and Culture Methods 1988, 11, 201-205).
# (§2) 96-well microtiter plates are inoculated with cells (5×10^3 cells per well) in aliquots of 195 μl of medium, incubating them for 18 h, in medium without added compound, to allow the cells to adhere to the surface. Next, the compounds to be tested are added, in samples of 5 μl, in a concentration range of 10 to 10^−8 μg/ml, dissolved in DMSO/EtOH (0.2% in PS buffer). After 48 h exposure, the anti-tumour effect is measured using the SRB technique: the cells are fixed by adding 50 μl of cold trichloroacetic acid (50%) (w/v) and it is incubated for 60 min. at 4° C. The plates are washed with deionized water and dried. 100 μl of SRB solution (0.4% w/v in 1% acetic acid) are added to each well, and it is incubated for 10 min. at ambient temperature. The unbound SRB is eliminated, washing with 1% acetic acid. The plates are air dried and the bound colorant is dissolved with Tris buffer. The optical densities are read in an automatic dish spectrophotometer reader at a wavelength of 490 nm.
# HT29 (colon) = assay: as above; type: cell-based; conditions: read-out: GI50 (concentration at which the compound tested inhibits 50% of the cell growth in comparison with untreated cells)
# Experimental: as §1, §2
# MDA-MB-231 (breast) = assay: as above; type: cell-based; conditions: 48 h exposure, read-out: GI50 (concentration at which the compound tested inhibits 50% of the cell growth in comparison with untreated cells)
# Experimental: as §1, §2
# tumour cell lines = assay: Anti-tumour activity against the series of tumour cell lines (SRB test); type: cell-based; conditions: tumour cell lines of Table 5, in words
# Experimental: as §1, §2
# [1] = spontaneous dehydration and oxidation; J. Am. Chem. Soc. 1999, 121, 1786-1794; cited from earlier work
Compound,GI50 (A549 (lung)),GI50 (HT29 (colon); 48 h exposure),GI50 (MDA-MB-231 (breast)),GI50 values (in words) (tumour cell lines),GI50 (A549 (lung); Homo sapiens),"GI50 (HT29 (colon); Homo sapiens, HT-29, 48 h exposure)",GI50 (MDA-MB-231 (breast); Homo sapiens),anti-tumour activity compared with OVM (tumour cell lines),stability [1]
"Cc1c(O)c2cc(O)c3c(=O)c4c(O)cccc4c(=O)c3c2c(=O)c1=O [OVM, Oviedomycin]",8.7 µM,6.9 µM,5.6 µM,,,,,,
"4a,12b-dehydro-UWM6 [formula IX]",0.77 µM,1.85 µM,0.65 µM,submicromolar range,,,,clearly greater activities than that of the OVM,
"Cc1cc(O)c2c3c(c(O)c(O)c2c1)C(=O)c1c(O)cccc1C3=O [formula VIII, 5-hydroxy-dehydro-rabelomycin]",6.24 µM,8.03 µM,2.56 µM,,,,,,
"C[C@]1(O)CC(=O)c2c(cc(O)c3c2C(=O)c2cccc(O)c2C3=O)C1 [formula VI, rabelomycin]",,,,,5.32 µM,10.9 µM,6.8 µM,,

# Continued, in another order:
GI50 (A549 (lung)),GI50 (HT29 (colon); 48 h exposure),GI50 (MDA-MB-231 (breast)),GI50 values (in words) (tumour cell lines),GI50 (A549 (lung); Homo sapiens),"GI50 (HT29 (colon); Homo sapiens, HT-29, 48 h exposure)",GI50 (MDA-MB-231 (breast); Homo sapiens),Compound,anti-tumour activity compared with OVM (tumour cell lines),stability [1]
3.1 µM,14.1 µM,7.06 µM,,,,,"C[C@]1(O)CC(=O)c2c(cc(O)c3c2C(=O)c2ccc(O)c(O)c2C3=O)C1 [formula XIII, 9-hydroxy-rabelomycin]",,
0.6 µM,1.17 µM,0.38 µM,submicromolar range,,,,prejadomycin 2-carboxylate [formula VII],clearly greater activities than that of the OVM,
> 100 µM,> 100 µM,24.8 µM,,,,,"C[C@]1(O)CC(=O)C2c3cc4cccc(O)c4c(O)c3C(=O)C[C@]2(O)C1 (stereo partly shown) [formula XI, UWM6]",,unstable and spontaneously becomes rabelomycin
0.29 µM,1.29 µM,0.24 µM,submicromolar range,,,,"CC1=CC(=O)[C@@H]2c3cc4cccc(O)c4c(O)c3C(=O)C[C@]2(O)C1 [formula X, prejadomycin]",clearly greater activities than that of the OVM,
7.62 µM,12.4 µM,13.3 µM,,,,,5-hydroxy-rabelomycin [formula XII],,
